# Patent US20190022239A1, “NOVEL BIOMOLECULE CONJUGATES AND USES THEREFOR” (The University of Western Australia, priority 2016, published 2019)
# Entries after “also recorded” stand apart in the source; their conditions may differ.
# What was measured:
# [1] = test system: RIP-Tag insulinoma and hepatocellular carcinoma; assay: In vivo binding specificity of fluorescein-labelled TNFα-CSG and native TNFα; parameters: species or system mice; conditions: 130 μg i.v., 30 min circulation
# Experimental: Binding specificity of TNFα-CSG to tumours in vivo was assessed by detecting fluorescein-labelled TNFα-CSG and native unconjugated TNFα following 130 μg intravenous injection (30 min circulation).
# [2] = Toxicity of repeated intravenous injections; assay type: in vivo; conditions: 0.5-10 μg daily i.v., total of 8 injections
# Experimental: To determine potential toxicity effects of TNFα-CSG, the inventors then administered TNFα-CSG intravenously to mice (n=6) at a dose ranging from 0.5-10 μg daily, to a total of 8 injections. TNFα-CSG is non-toxic at these doses and frequency.
# [3] = test system: 4T1 breast carcinoma; assay: Immune cell infiltration in 4T1 breast carcinoma (FACS); assay type: in vivo, mice; conditions: 2 μg daily i.v. for 5 days
# Source text: Dextran coated iron oxide encapsulated with 18:0 PEG2000 PE micelle formulation and doxorabicin-micelles were made in the laboratory. 4T1 murine breast carcinoma is an orthotopic implant model by inoculating of 5×10^5 cells in die mammary fat pad of syngeneic BALB/c mice. RIP1-TagS insulinoma model (on C3H background) contains the oncogene SV40 Large T antigen (Tag; RIP, rat insulin gene promoter) that is exclusively expressed in β cells of the pancreas resulting in pancreatic tumours of neuroendocrine origin. ALB-Tag HOC (in C3H background) contains the oncogene SV40 Large T antigen (Tag) that is exclusively expressed in hepatocytes under the control of the albumin (ALB) promoter, resulting in rapid (non-metastatic) HCC tumour progression.
# Mice bearing 4T1 breast carcinoma, when tumour size reached 500 mm^3, were treated with 0.5 and 2 μg TNFα-CSG or native TNFα (in 100 μL) by daily intravenous injection for 5 days. FACS quantification of CD4+ and CD8+ T cells and infiltrating macrophages (CD11b+/CD68+/F4/80+) harvested in whole tumours is presented in FIG. 5.
# As noted in Example 2, native TNFα at 2 μg is toxic (all mice died after receiving 2 doses of 2 μg TNFα). A lower dose of native TNFα (0.5 μg) is not effective compared to 0.5 μg TNFα-CSG (FIG. 5).
# [4] = test system: RIP-Tag insulinoma; assay: Immune cell infiltration in RIP-Tag insulinoma (immunofluorescence); assay type: in vivo, mice; conditions: 2 and 5 μg daily i.v. for 5 days, vs control groups
# Experimental: Mice bearing RIP-Tag insulinoma at 25 weeks of age were treated with 2 and 5 μg TNF60 -CSG (in 100 μL) by daily intravenous injection for 5 days. FIG. 6 presents microscopic evaluation of CD4+ and CD8+ T cells and circulatory CD11b macrophages detected by immunofluorescence staining of tissue cross sections.
# [5] = test system: RIP-Tag insulinoma; assay: Tumour ECM content (collagen-1, laminin, nidogen-1); assay type: in vivo, mice; conditions: 2 μg or 5 μg i.v. daily for five days
# Experimental: As evidenced by analysis of the ECM components collagen-1, laminin and nidogen-1, intravenous injection of TNFα-CSG at a dose of 2 μg or 5 μg daily for five days to mice having a RIP-Tag insulinoma, specifically reduces tumour ECM content (FIG. 9).
# [6] = test system: 4T1 breast carcinoma and RIP-Tag insulinoma; assay: Tumour stiffness by optical coherence tomography/micro-elastography; assay type: in vivo, mice; conditions: 2 μg/day × 4 total injections
# [7] = test system: RIP-Tag insulinoma and 4T1 breast carcinoma; assay: Tumour vessel perfusion (CD31:lectin ratio); assay type: in vivo, mice; conditions: 2 μg/day × 5
# Experimental: The inventors then evaluated vessel perfusion in RIP-Tag insulinoma and 4T1. breast carcinoma from mice treated with TNFα-CSG (2 μg/day×5), as measured by CD31:lectin ratio following 10 min intravenous circulation of tomato green lectin.
# [8] = test system: 4T1 breast carcinoma; assay: Tumour uptake of doxorubicin-micelles; assay type: in vivo, mice; conditions: 2 μg i.v. daily for 5 days, then 100 μL of 1 mM doxorubicin-micelles
# Experimental: 4T1 breast carcinoma-bearing mice were treated with 2 μg TNFα-CSG or CSG control, peptide by intravenous injection, daily for 5 days. Mice were then injected with 100 μL of 1 mM doxorubicin-micelles (200 nm in size) and tissues including tumours, spleen and liver were collected for analysis.
# [9] = test system: 4T1 tumour; assay: Anti-tumorigenic effect on 4T1 tumour growth; assay type: in vivo, mice; conditions: 2 μg, 6 injections in 2 weeks
# Experimental: The inventors have also discovered that TNFα-CSG has anti-tumorigenic effects, as evidenced by reduced tumour growth and reduced cell proliferation. 4T1 tumour-bearing mice were treated with 2 μg TNFα-CSG or control CSG peptide 4 days after inoculation with 5×10^5 4T1 cells. Each mouse received a total of 6 injections in 2 weeks.
# [10] = test system: 4T1 breast tumours; assay: Secondary metastasis of 4T1 breast tumours; assay type: in vivo, mice; conditions: 10 μg daily i.v., up to eight injections
# Experimental: 4T1cells in blood, lung, liver and lymph nodes were harvested once the primary tumours reached 2,000 mm^3. Cell suspensions from these tissues were cultured in 6-thioguanine-containing media to select for 4T1 cells that are resistant to 6-thioguanine. Colonic metastasis of methylene blue stained cells were counted. It is known that the lung is the primary site of metastasis of breast tumours. […] Similarly, the colonic metastasis counts in liver and lymph nodes were lower in the TNFα-CSG treated group.
# [11] = test system: 4T1 tumours; assay: Tumour clearance, whole microscopic images of 4T1 tumours; assay type: in vivo, mice; conditions: 10 μg for five days
# [12] = test system: advanced insulinoma; assay: Survival of mice bearing advanced insulinoma; assay type: in vivo; conditions: 5 μg daily i.v. for five days at 24 weeks of age
# Experimental: Survival studies were conducted using mice bearing advanced insulinoma, at 24 weeks of age, treated with 5 μg TNFα-CSG or 0.8 μg CSG daily for five days by intravenous injection.
# [13] = test system: atherosclerotic plaque; assay: TNFα-CSG therapy of aging ApoE null mice; conditions: for ALT / AST / Troponin: plasma, median (interquartile range)
# Experimental: Aging ApoE null mice were treated with 10 μg TNFα-CSG or 0.8 μg CSG peptide daily for five days by intravenous injection. Tissue, including aorta and plasma, were collected from euthanised animals at 70 weeks of age. Plasma samples were collected after 1 and 10 weeks of therapy and assessed for markers of (i) circulating cholesterol (total cholesterol, HDL and LDL), (ii) cardiac necrosis (troponin) and (iii) liver damage (alanine transaminase, ALT and aspartate transaminase, AST).
substance,measurement,setting,value
TNFα-CSG: Mature murine TNFα (SEQ ID NO:6) with C-terminal conjugated peptide CSGRRSSKC connected via a GGG linker; recombinant fusion protein,binding to tumour tissue in vivo,[1],specifically targeted
same,binding to normal tissues in vivo,[1]; normal tissues,"limited binding to normal pancreas, liver, heart, and kidney"
same,toxicity,[2],non-toxic
same,"increase in immune cell infiltration (CD4+, CD8+ T cells, macrophages)",[3],most effective
same,"immune cell infiltration (CD4+, CD8+ T cells, CD11b macrophages)",[4],significant increase in immune cell infiltration
same,ECM content in normal pancreas,[5],remained unaltered
same,"tumour ECM content (collagen-1, laminin, nidogen 1, excluding basement membrane)",[5],significant reduction in ECM content
same,tumour stiffness,[6],below 100 kPa
same,tissue stiffness (stiffness >100 kPa) and stiffness variance,[6]; frequency distribution,significantly reduced
same,vessel width vs control treated tumours,[7],significantly wider
same,CD31:lectin ratio,[7]; 10 min i.v. circulation of lectin,~1
same,doxorubicin (autofluorescence) in treated tumours,[8],strong traces of doxorubicin
same,ratio of cytotoxic T cells to immune suppressor T cells,[9],significantly higher ratio of cytotoxic T cells to immune suppressor T cells
same,tumour cell proliferation (Ki67+),[9],significant reduction in tumour cell proliferation
same,tumour size and weight,[9]; vs control CSG peptide,significantly reduced
same,hypoxia in primary tumours,[10],significantly reduced hypoxia
same,lung metastasis (cell density/tissue),[10],significantly reduced lung metastasis
same,metastatic colony counts in liver and lymph nodes,[10],lower
same,tumour centre,[10],enlarged tumour centres that were cleared of tumour burden
same,tumour clearance (hypoxia marker staining),[11],large areas at the centre of the tumour devoid of tumour cells
same,survival compared to CSG-treated mice,[12],significantly enhanced
same,plaque burden (plaque positive area),[13]; 10 μg daily i.v. for five days,significantly reduced plaque burden
same,circulating HDL levels,[13]; 10 weeks after administration,increase in circulating HDL levels; also recorded: significantly increased
same,circulating LDL,[13]; 10 weeks after administration,reduction in LDL
same,plasma LDL:HDL ratio,[13]; 10 weeks after therapy,reduced
same,plasma LDL:HDL ratio,[13]; after 1 week of therapy,increased
same,"activated endothelia (CD31+, endoglin+) in plaque intima","[13]; mouse, in vivo",increased the expression of activate endothelia
same,macrophage content (CD11b+) in plaque,"[13]; mouse, in vivo",reduced macrophage content
same,"ECM in plaque intima (collagen I, collagen IV, laminin)","[13]; mouse, in vivo, iv",degraded ECM in plaque intima
same,cardiac or liver toxicity,"[13]; plasma troponin, ALT, AST",did not elevate cardiac or liver toxicity
same,ALT,[13]; 1 week,33.3 (15.4-115.5) U/L
same,AST,[13]; 1 week,106 (74.0-195.5) U/L
same,Troponin,[13]; 1 week,15.3 (10.7-30.2) ng/L
same,ALT,[13]; 10 weeks,26.0 (18.5-79.8) U/L
same,AST,[13]; 10 weeks,81.5 (52.3-184.3) U/L
same,Troponin,[13]; 10 weeks,15.1 (5.7-24.0) ng/L
